Holding throughout (assay): NCI tumour cell line growth inhibition, 48 h
In assay [1] the test system is 786-0.
The subject of assay [2] is EKVX.
The subject of assay [3] is HCT-15.
The test system of assay [4] is IGROV-1.
The test system of assay [5] is LOX IMVI.
Assay [6] deals with M14.
The subject of assay [7] is Malme-3M.
The test system of assay [8] is NCI-H23.
Assay [9] concerns SN12C.
Assay [10] relates to SW-620.
Assay [11] concerns UACC-62.
Assay [12] concerns KM12.
Assay [13] has as its system NCI-H522.
The test system of assay [14] is OVCAR-5.
The subject of assay [15] is UACC-257.
Assay [16] concerns SK-MEL-5.

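In this assay, cells in 96-well plates receive the compound at five concentrations for 48 hours. Endpoints are linearly interpolated between the surrounding concentrations. Abbreviation: GI50, concentration required for 50% inhibition of growth.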 Calls of active or inactive are those of the source. Rule as the data show it: active = GI50 up to about 1.1 µM and inactive = higher.

For the compound `CC(=O)c1c(O)c2c([nH]c1=O)CCCC2`, the GI50 is > 100 µM (inactive) in assay [1]; 51.1 µM (inactive) in [2]; 48.1 µM in assay [3]; 32.9 µM (inactive) in [4]; 20.1 µM (inactive) in assay [5]; 39.3 µM (inactive) in [6]. The GI50 is > 100 µM (inactive) in assay [7]; 41.1 µM (inactive) in [8]; 22.5 µM (inactive) in [9]; > 100 µM (inactive) in [10]; 18.1 µM (inactive) in assay [11].

In the case of `NC(=O)c1csc(C2C=CC(CO)O2)n1` (stereo unspecified), the GI50 in [1] is > 100 µM (inactive); in assay [2] it was > 100 µM (inactive); in assay [3] it was > 100 µM; in assay [4] it was > 100 µM (inactive); in assay [12], > 10 µM (inactive); in [5] it was > 100 µM (inactive). The GI50 in assay [6], in [7], in assay [8], in [13], in [14] and in assay [9] was > 100 µM (inactive) each time. Further, the GI50 in assay [10], in assay [15] and in [11] was > 100 µM (inactive) throughout.

Consider `Nc1nc2c(c(=O)[n-]1)[n+](CCO)cn2C1OC(CO)C(O)C1O` (stereo unspecified), for which the GI50 in assay [1] is > 100 µM (inactive); in assay [2] it was > 100 µM (inactive); in [3], > 100 µM; in assay [4], > 100 µM (inactive); in assay [12] it was > 100 µM (inactive); in [5], > 100 µM (inactive). For the same compound, the GI50 in assay [6], in [7], in assay [13], in assay [14], in [16] and in assay [9] was > 100 µM (inactive) throughout. The GI50 in [10], in assay [15] and in [11] was > 100 µM (inactive) throughout.

As to `C=C(C(=C)P(=S)(C(C)C)C(C)C)P(=S)(C(C)C)C(C)C`, the GI50 was > 100 µM (inactive) in [1]; > 100 µM (inactive) in assay [2]; > 100 µM in [3]; > 100 µM (inactive) in assay [4]; > 100 µM (inactive) in assay [12]; > 100 µM (inactive) in [5]. Moreover, the GI50 in assay [6], in assay [7], in assay [8], in assay [13], in assay [14] and in assay [16] was > 100 µM (inactive) in each case. The GI50 in assay [9], in assay [10], in assay [15] and in assay [11] was > 100 µM (inactive) in each case.

Take `COc1cc2c(cc1OC)C1Cc3cc(OC)c(OC)cc3N1CC2` (stereo unspecified): the GI50 in assay [1] is 17.7 µM (inactive); in assay [2], 27.7 µM (inactive); in [4], 52.6 µM (inactive); in assay [12] it was 28.6 µM (inactive); in assay [6], 20 µM (inactive); in [7] it was 20.9 µM (inactive). Also, the GI50 in assay [8] was 29.5 µM (inactive); in assay [13], 12.2 µM (inactive); in assay [14], > 100 µM (inactive); in [9], 75.2 µM (inactive); in assay [10], 29.9 µM (inactive); in [15], 42 µM (inactive). Further, the GI50 in assay [11] is 26.1 µM (inactive).

Turning to `O=C(CC1(O)C(=O)Nc2c(Cl)ccc(Cl)c21)c1ccc(Cl)cc1` (stereo unspecified), the GI50 in assay [1] was 16.7 µM (inactive); in assay [2] it was 95.3 µM (inactive); in assay [3], 31.4 µM; in assay [4], 23.9 µM (inactive); in assay [12], 28.4 µM (inactive); in assay [5], 18.5 µM (inactive). Further, the GI50 was 26.4 µM (inactive) in [6]; 28.8 µM (inactive) in assay [7]; 21.6 µM (inactive) in [8]; 35.2 µM (inactive) in [14]; 18.2 µM (inactive) in assay [9]; 55.5 µM (inactive) in assay [10]. For the same compound, the results for the GI50 in assay [15] and in assay [11] were 29.9 µM (inactive) and 23.1 µM (inactive), respectively.

`O=C(O)c1c2c(cc3c(=O)c4ccccc4[nH]c13)CCCC2`: the GI50 in assay [1] is 72.8 µM (inactive); in [2], > 100 µM (inactive); in assay [3], 62.7 µM; in [4] it was > 100 µM (inactive); in [5], 60.5 µM (inactive); in assay [7], > 100 µM (inactive). Also, the GI50 was > 100 µM (inactive) in [8]; > 100 µM (inactive) in assay [14]; > 100 µM (inactive) in assay [9]; 65.2 µM (inactive) in assay [10]; > 100 µM (inactive) in assay [15]; 76.7 µM (inactive) in [11].

Take `Cc1cc(C)nc(NS(=O)(=O)c2ccc(Nc3c4ccccc4nc4c(C(=O)NCCN(C)C)cccc34)cc2)n1`: the GI50 is 11.6 µM (inactive) in assay [1]; 10.5 µM (inactive) in assay [2]; 5.66 µM in assay [3]; 2.83 µM (inactive) in [4]; 3.43 µM (inactive) in [12]; 1.74 µM (inactive) in [5]. The GI50 is 6.5 µM (inactive) in assay [6]; 4.26 µM (inactive) in assay [8]; 0.566 µM (active) in assay [13]; 12.8 µM (inactive) in [14]; 5.75 µM (inactive) in assay [16]; 2.79 µM (inactive) in assay [9]. Besides, the GI50 is 0.764 µM (active) in [10] and 3.55 µM (inactive) in assay [11].

With `Cc1cc2c(C)n[nH]c2c(C(=O)O)c1C`, the GI50 in assay [1] is > 100 µM (inactive); in [2], > 100 µM (inactive); in assay [3], > 100 µM; in [4], > 100 µM (inactive); in assay [12], > 100 µM (inactive); in assay [8] it was 85.7 µM (inactive). Also, the GI50 in assay [9], in [10], in [15] and in assay [11] was > 100 µM (inactive) in each case.

Turning to `N#CC(C(=O)C(=O)C(C#N)c1ccc(Br)cc1)c1ccc(Br)cc1` (stereo unspecified), the GI50 in assay [1] is 12.9 µM (inactive); in assay [2], 12 µM (inactive); in assay [3] it was 13.3 µM; in assay [4] it was 15.6 µM (inactive); in assay [12], 10.6 µM (inactive); in assay [5] it was 11 µM (inactive). The GI50 was 14.2 µM (inactive) in [6]; 13.6 µM (inactive) in assay [7]; 3.91 µM (inactive) in assay [8]; 18.2 µM (inactive) in [14]; 14.4 µM (inactive) in assay [16]; 14.5 µM (inactive) in assay [9]. The GI50 is 14.7 µM (inactive) in assay [10], 11.9 µM (inactive) in [15] and 1.51 µM (inactive) in [11].

For `Fc1ccc(C2SCc3nc4ccccc4n32)cc1Cl` (stereo unspecified), the GI50 in assay [1] was 27.7 µM (inactive); in [2] it was 24.3 µM (inactive); in assay [4] it was > 10 µM (inactive); in assay [12], 16.1 µM (inactive); in assay [5], 17.9 µM (inactive); in assay [7] it was 7.8 µM (inactive). Further, the GI50 in assay [8] was 22.5 µM (inactive); in [13], 13.7 µM (inactive); in assay [14], 15.4 µM (inactive); in assay [9], 16.3 µM (inactive); in [10], 36.1 µM (inactive); in assay [15], 22.8 µM (inactive). Further, the GI50 in assay [11] was 10.1 µM (inactive).

As to `O=C(N/C(=C\c1ccc(/C=C(\NC(=O)c2ccccc2)c2nc3ccccc3[nH]2)cc1)c1nc2ccccc2[nH]1)c1ccccc1`, the GI50 in assay [1] is > 100 µM (inactive); in assay [2] it was > 100 µM (inactive); in assay [3], > 100 µM; in assay [4], > 100 µM (inactive); in assay [5], > 100 µM (inactive); in assay [6], 57.9 µM (inactive). Also, the GI50 in assay [7], in assay [8], in [13], in assay [14], in assay [16] and in [9] was > 100 µM (inactive) in each case. Moreover, the GI50 in assay [10], in [15] and in [11] was > 100 µM (inactive) each time.

Turning to `CSC(C1c2ccccc2N(c2ccc(C)cc2)C2=NC(=O)N(C)C(=O)C21Cl)S(=O)(=O)c1ccc(C)cc1` (stereo unspecified), the GI50 in [1] was 18.5 µM (inactive); in [2], 35.4 µM (inactive); in assay [4], 33.3 µM (inactive); in assay [5] it was 20.5 µM (inactive); in assay [6], 26.9 µM (inactive); in assay [7] it was 17.2 µM (inactive). The GI50 was 22 µM (inactive) in [8]; 13.4 µM (inactive) in assay [13]; 35.3 µM (inactive) in assay [14]; 17.3 µM (inactive) in assay [16]; 21.7 µM (inactive) in assay [9]; 30.6 µM (inactive) in [10]. Also, the GI50 in [15] was 23.7 µM (inactive); in [11], 21.6 µM (inactive).

Consider `COC1CC(n2cc(F)c(N)nc2=O)OC1CO` (stereo unspecified), for which the GI50 is > 100 µM (inactive) in assay [1]; > 100 µM (inactive) in assay [2]; > 100 µM in assay [3]; > 100 µM (inactive) in [12]; > 100 µM (inactive) in assay [5]; > 100 µM (inactive) in assay [6]. The GI50 in assay [7], in assay [8], in assay [13], in assay [14], in [16] and in assay [9] was > 100 µM (inactive) each time. For the same compound, the GI50 in assay [10] and in assay [15] was > 100 µM (inactive) each time.

Values taken from ChEMBL document CHEMBL1201862, “PubChem BioAssay data set” (2004).
